Tested on: DNA substrate containing the NFkβ consensus sequence
Test: DNase protection assay for DNA-protein interactions (ECL)
Format: binding
Experimental: This example illustrates the use of the invention to measure protein-DNA interactions, specifically, the binding of the transcription factor NFkβ with its consensus DNA sequence. A schematic depicting the assay format can be found in the detailed description of the invention. DNAse 1 and NFkβ were purchased from Promega Corp. A DNA substrate containing a consensus DNA sequence for NFk was prepared by Midland Certified Reagent Co. by solid phase synthesis. The sequence of the substrate is shown below. The nucleotides shown in brackets were linked by phosphorothioate linkages; the other linkages were standard phosphodiester bonds. […]
The labeled DNA substrate (50 fmol), poly dI-dC (1 ug, to reduce non-specific protein-DNA interactions) and varying amounts of recombinant NFkβ (p50 subunit) were combined in a 20 uL volume and incubated for 30 min. at room temperature. […] The reaction mixture was introduced into an ORIGEN Analyzer (IGEN International) running in Magnetic Capture Mode and the ECL signal from RuBpy on the magnetic beads was determined in the presence of a solution containing tripropylamine (ORIGEN Assay Buffer, IGEN International). […]
The specificity of the assay was determined by replacing the specific binding protein NFkβ with other DNA binding proteins specific for sequences not present on the DNA substrate (the phosphorothioate containing substrate was used).

With “AP-2: DNA binding protein specific for sequences not present on the DNA substrate” the “nuclease protection of the DNA substrate containing the NFkβ consensus sequence” value (in words) was “no ability to protect against nuclease attack” and the “ECL Signal” value (specificity test, DNase added, phosphorothioate containing NFkβ consensus substrate) was 32289.
